For twelve molecules, T/C results are on record in PubChem BioAssay AID328 (DTP/NCI, 2004).

This experiment relates to BDF1 mice, P388 leukemia ip, median survival T/C. Kind of experiment: NCI In Vivo Anticancer Drug Screen. Data for tumor model P388 Leukemia (intraperitoneal) in B6D2F1 (BDF1) mice. The following applies: endpoint: median survival time, higher = longer survival. In short, it runs like this:
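Vehicle-dosed animals serve as the reference; survival of compound-dosed, tumour-implanted mice is divided by it.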

The mark [1] stands for this setting: dose: 12.5 mg/kg/injection, schedule: Q01DX009 (ip), vehicle: saline.
[2] abbreviates: dose: 25.0 mg/kg/injection, schedule: Q01DX009 (ip), vehicle: saline.
The mark [3] stands for this setting: dose: 100.0 mg/kg/injection, schedule: Q04DX003 (ip), vehicle: saline with Tween-80.
[4] abbreviates: dose: 200.0 mg/kg/injection, schedule: Q04DX003 (ip), vehicle: saline with Tween-80.

SMILES strings stand for the structures. Toxic doses and inconclusive results are not listed. Non-standard residues stand in square brackets, D forms with d. Residues, ends and D or L forms follow the SMILES beside them. ξ: configuration not given here. *: point of attachment. Nphe = O=C(O)CNCc1ccccc1; ξF = NC(Cc1ccccc1)C(=O)O; Ms = CS(=O)(=O)*

`CO[C@@]12[C@H](COC(N)=O)C3=C(C(=O)C(C)=C(N)C3=O)N1C[C@H]1[C@@H]2N1C(=O)[C@@H]1N2C(=O)[C@@H](NC(=O)Cc3ccccc3)[C@H]2SC1(C)C`: the T/C runs as follows: under setting [1], 151 % of control; under setting [2], 160 % of control; (dose: 50.0 mg/kg/injection, schedule: Q01DX009 (ip), vehicle: saline) 210 % of control.
As to `CCCCOP(=S)(N1CC1)N1CC1`, the T/C by setting is: (dose: 1.78 mg/kg/injection, schedule: Q01DX009 (ip), vehicle: saline with Tween-80) 113 % of control; (dose: 2.66 mg/kg/injection, schedule: Q01DX009 (ip), vehicle: saline with Tween-80) 150 % of control; (dose: 2.66 mg/kg/injection, schedule: Q04DX003 (ip), vehicle: saline with Tween-80) 99 % of control; (dose: 4.0 mg/kg/injection, schedule: Q01DX009 (ip), vehicle: saline with Tween-80) 186 % of control; (dose: 4.0 mg/kg/injection, schedule: Q04DX003 (ip), vehicle: saline with Tween-80) 95 % of control; (dose: 6.0 mg/kg/injection, schedule: Q01DX009 (ip), vehicle: saline with Tween-80) 216 % of control. In addition, the T/C reads like this: (dose: 6.6 mg/kg/injection, schedule: Q01DX009 (ip), vehicle: saline with Tween-80) 194 % of control; (dose: 10.0 mg/kg/injection, schedule: Q01DX009 (ip), vehicle: saline with Tween-80) 211 % of control; (dose: 11.0 mg/kg/injection, schedule: Q01DX009 (ip), vehicle: saline with Tween-80) 212 % of control; (dose: 15.0 mg/kg/injection, schedule: Q01DX009 (ip), vehicle: saline with Tween-80) 108 % of control; (dose: 25.0 mg/kg/injection, schedule: Q01DX009 (ip), vehicle: saline with Tween-80) 111 % of control; (dose: 37.5 mg/kg/injection, schedule: Q01DX009 (ip), vehicle: saline with Tween-80) 95 % of control. The T/C is 96 % of control (dose: 50.0 mg/kg/injection, schedule: Q01DX009 (ip), vehicle: saline with Tween-80); 263 % of control under setting [3]; 104 % of control under setting [4].
In the case of `O=Nc1ccc2ccccc2c1O`, the T/C is 107 % of control (dose: 50.0 mg/kg/injection, schedule: Q01DX001 (ip), vehicle: Klucel (hydroxypropylcellulose) (HPC)) and 104 % of control (dose: 100.0 mg/kg/injection, schedule: Q01DX001 (ip), vehicle: Klucel (hydroxypropylcellulose) (HPC)).
Take `CC(C)NC(=O)c1ccccc1Sc1ccccc1C(=O)NC(C)C`: the T/C reads like this: under setting [3], 105 % of control; under setting [4], 105 % of control; (dose: 400.0 mg/kg/injection, schedule: Q04DX003 (ip), vehicle: saline with Tween-80) 99 % of control.
`CCCCCCCCNC12CC3CC(CC(C3)C1)C2`: the T/C reads like this: (dose: 6.25 mg/kg/injection, schedule: Q04DX003 (ip), vehicle: saline) 104 % of control; (dose: 12.5 mg/kg/injection, schedule: Q04DX003 (ip), vehicle: saline) 108 % of control; (dose: 25.0 mg/kg/injection, schedule: Q04DX003 (ip), vehicle: saline) 116 % of control; (dose: 50.0 mg/kg/injection, schedule: Q04DX003 (ip), vehicle: saline) 100 % of control; (dose: 100.0 mg/kg/injection, schedule: Q04DX003 (ip), vehicle: saline) 108 % of control.
Turning to `[Cl][Pt+2][Cl].[NH-]C1CCCC1.[NH-]C1CCCC1`, the T/C by setting is: (dose: 10.0 mg/kg/injection, schedule: Q01DX009 (ip), vehicle: Klucel (hydroxypropylcellulose) (HPC)) 96 % of control; (dose: 20.0 mg/kg/injection, schedule: Q01DX009 (ip), vehicle: Klucel (hydroxypropylcellulose) (HPC)) 107 % of control; (dose: 40.0 mg/kg/injection, schedule: Q01DX009 (ip), vehicle: Klucel (hydroxypropylcellulose) (HPC)) 112 % of control; (dose: 80.0 mg/kg/injection, schedule: Q01DX009 (ip), vehicle: Klucel (hydroxypropylcellulose) (HPC)) 117 % of control.
For the molecule `CC([N+](=O)[O-])S(=O)(=O)c1ccc(Cl)cc1` (stereo not given), the T/C runs as follows: (dose: 50.0 mg/kg/injection, schedule: Q01DX001 (ip), vehicle: saline sonified) 95 % of control; (dose: 100.0 mg/kg/injection, schedule: Q01DX001 (ip), vehicle: saline sonified) 100 % of control; (dose: 200.0 mg/kg/injection, schedule: Q01DX001 (ip), vehicle: saline sonified) 100 % of control.
Consider `O=S(=O)([O-])[O-].OCCNCCNCC[OH2+].OCCNCCNCC[OH2+].[Cu+2]`, for which the T/C is 94 % of control (dose: 6.25 mg/kg/injection, schedule: Q01DX009 (ip), vehicle: saline); 100 % of control under setting [1]; 94 % of control under setting [2].
With `CCOC(=O)C1=C2c3ccc4ccccc4c3CCC2(C)C(=O)C1` (stereo not given), the T/C is, setting by setting: (dose: 10.0 mg/kg/injection, schedule: Q01DX009 (sc), vehicle: steriod suspending solution) 104 % of control; (dose: 18.0 mg/kg/injection, schedule: Q04DX003 (sc), vehicle: steriod suspending solution) 91 % of control; (dose: 20.0 mg/kg/injection, schedule: Q01DX009 (sc), vehicle: steriod suspending solution) 95 % of control; (dose: 37.5 mg/kg/injection, schedule: Q04DX003 (sc), vehicle: steriod suspending solution) 95 % of control; (dose: 40.0 mg/kg/injection, schedule: Q01DX009 (sc), vehicle: steriod suspending solution) 100 % of control; (dose: 75.0 mg/kg/injection, schedule: Q04DX003 (sc), vehicle: steriod suspending solution) 108 % of control.
In the case of `CS(=O)(=O)N(CC(=O)NC(Cc1ccccc1)C(=O)O)Cc1ccccc1` (stereo not given) (Ms-[Nphe]-[ξF]-OH), the T/C is 100 % of control (dose: 12.5 mg/kg/injection, schedule: Q04DX003 (ip), vehicle: sodium bicarbonate); 114 % of control (dose: 25.0 mg/kg/injection, schedule: Q01DX009 (ip), vehicle: other); 94 % of control (dose: 25.0 mg/kg/injection, schedule: Q04DX003 (ip), vehicle: other); 106 % of control (dose: 25.0 mg/kg/injection, schedule: Q04DX003 (ip), vehicle: sodium bicarbonate); 100 % of control (dose: 50.0 mg/kg/injection, schedule: Q01DX009 (ip), vehicle: other); 103 % of control (dose: 50.0 mg/kg/injection, schedule: Q04DX003 (ip), vehicle: other). In addition, the T/C (dose: 50.0 mg/kg/injection, schedule: Q04DX003 (ip), vehicle: sodium bicarbonate) was 104 % of control; the T/C (dose: 100.0 mg/kg/injection, schedule: Q01DX009 (ip), vehicle: other) is 114 % of control; the T/C (dose: 100.0 mg/kg/injection, schedule: Q04DX003 (ip), vehicle: other) is 106 % of control; the T/C (dose: 100.0 mg/kg/injection, schedule: Q04DX003 (ip), vehicle: sodium bicarbonate) was 96 % of control; the T/C (dose: 200.0 mg/kg/injection, schedule: Q04DX003 (ip), vehicle: other) is 104 % of control; the T/C (dose: 200.0 mg/kg/injection, schedule: Q04DX003 (ip), vehicle: sodium bicarbonate) is 98 % of control. Besides, the T/C by setting is: (dose: 400.0 mg/kg/injection, schedule: Q04DX003 (ip), vehicle: other) 103 % of control; (dose: 400.0 mg/kg/injection, schedule: Q04DX003 (ip), vehicle: sodium bicarbonate) 90 % of control.
On to `NNc1ccnc2[nH]ncc12`, for which the T/C is 107 % of control (dose: 6.25 mg/kg/injection, schedule: Q01DX006 (ip), vehicle: saline with Tween-80); 104 % of control (dose: 12.5 mg/kg/injection, schedule: Q01DX006 (ip), vehicle: saline with Tween-80); 104 % of control (dose: 25.0 mg/kg/injection, schedule: Q01DX006 (ip), vehicle: saline with Tween-80).
Turning to `CCCCCC[C@@H](O)[C@@H]1C2=C(C[C@H]([C@H](O)[C@@H]3CC=CC(=O)O3)CC3=C(C(=O)OC3=O)[C@@H]1O)C(=O)OC2=O`, the T/C was 107 % of control (dose: 0.12 mg/kg/injection, schedule: Q01DX009 (ip), vehicle: saline); 109 % of control (dose: 0.25 mg/kg/injection, schedule: Q01DX009 (ip), vehicle: saline); 107 % of control (dose: 0.5 mg/kg/injection, schedule: Q01DX009 (ip), vehicle: saline); 119 % of control (dose: 1.0 mg/kg/injection, schedule: Q01DX009 (ip), vehicle: saline).
